Test results published in ChEMBL document CHEMBL5346971, “Discovery of the First Irreversible HDAC6 Isoform Selective Inhibitor with Potent Anti-Multiple Myeloma Activity” (J Med Chem, 2023).
The source made the active and inactive calls. The rule behind the calls is not given here.

Tests used:
[1] = target: T1, Protein deacetylase HDAC6 (Homo sapiens) (UniProt Q9UBN7); experiment: Irreversible inhibition of HDAC6 in human A549 cells assessed as acetyl alpha-tubulin level at 0.4 uM incubated for 5 hrs followed by drug wash-out and measured immediately after drug wash-out by western blot analysis relative to control; format: cell-based
T1 sequence (whole entry): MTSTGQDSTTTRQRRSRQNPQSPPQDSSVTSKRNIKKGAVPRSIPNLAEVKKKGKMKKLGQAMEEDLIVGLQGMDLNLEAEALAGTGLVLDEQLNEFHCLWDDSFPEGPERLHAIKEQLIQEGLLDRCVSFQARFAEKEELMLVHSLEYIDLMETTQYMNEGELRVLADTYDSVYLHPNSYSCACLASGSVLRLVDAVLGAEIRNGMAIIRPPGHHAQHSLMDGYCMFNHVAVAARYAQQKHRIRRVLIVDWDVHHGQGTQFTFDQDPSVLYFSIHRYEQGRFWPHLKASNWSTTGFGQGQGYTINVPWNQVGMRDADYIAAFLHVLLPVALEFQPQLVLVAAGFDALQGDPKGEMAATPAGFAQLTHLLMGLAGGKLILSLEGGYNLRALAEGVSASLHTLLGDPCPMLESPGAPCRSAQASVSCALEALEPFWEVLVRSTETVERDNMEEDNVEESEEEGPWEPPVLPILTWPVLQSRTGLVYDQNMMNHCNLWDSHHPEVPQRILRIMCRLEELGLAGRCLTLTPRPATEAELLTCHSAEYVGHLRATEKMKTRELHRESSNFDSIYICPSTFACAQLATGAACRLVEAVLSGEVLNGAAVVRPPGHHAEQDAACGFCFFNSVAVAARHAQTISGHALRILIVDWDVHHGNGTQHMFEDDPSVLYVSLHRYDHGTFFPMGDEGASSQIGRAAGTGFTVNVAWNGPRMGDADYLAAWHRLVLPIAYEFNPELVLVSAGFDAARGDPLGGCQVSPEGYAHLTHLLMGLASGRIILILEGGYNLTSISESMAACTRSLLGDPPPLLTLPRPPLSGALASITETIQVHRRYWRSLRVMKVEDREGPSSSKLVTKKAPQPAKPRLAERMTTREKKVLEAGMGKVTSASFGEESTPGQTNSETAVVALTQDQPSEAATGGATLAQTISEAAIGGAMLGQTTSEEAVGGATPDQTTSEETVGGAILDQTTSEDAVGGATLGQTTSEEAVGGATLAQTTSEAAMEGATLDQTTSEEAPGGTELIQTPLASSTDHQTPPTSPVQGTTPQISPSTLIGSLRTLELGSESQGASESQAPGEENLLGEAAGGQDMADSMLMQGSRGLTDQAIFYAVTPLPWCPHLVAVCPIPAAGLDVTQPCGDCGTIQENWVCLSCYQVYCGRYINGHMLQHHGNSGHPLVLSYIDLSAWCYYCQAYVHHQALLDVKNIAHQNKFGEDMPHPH

[2] = target: Class 1 histone deacetylase (Homo sapiens) (UniProt Q13547+O15379+Q92769+Q9BY41); experiment: Irreversible inhibition of class 1 HDAC in human A549 cells assessed as acetyl histone H3 level at 0.4 uM incubated for 5 hrs followed by drug wash-out and measured immediately after drug wash-out by western blot analysis relative to control; format: cell-based
Class 1 histone deacetylase (Homo sapiens), sequence (O15379 whole entry, looked up): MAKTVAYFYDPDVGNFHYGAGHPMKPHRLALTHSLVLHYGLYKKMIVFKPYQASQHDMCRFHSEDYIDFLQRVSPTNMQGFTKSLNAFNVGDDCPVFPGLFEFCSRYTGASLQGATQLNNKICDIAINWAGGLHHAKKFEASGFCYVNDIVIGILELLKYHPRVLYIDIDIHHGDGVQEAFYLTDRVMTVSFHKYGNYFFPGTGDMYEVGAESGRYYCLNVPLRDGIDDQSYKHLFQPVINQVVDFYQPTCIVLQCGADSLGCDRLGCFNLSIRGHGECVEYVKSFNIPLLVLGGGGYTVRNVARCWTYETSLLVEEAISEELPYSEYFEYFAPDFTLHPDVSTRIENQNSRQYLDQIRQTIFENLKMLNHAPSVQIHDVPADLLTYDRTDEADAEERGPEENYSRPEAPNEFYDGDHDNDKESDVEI
Class 1 histone deacetylase (Homo sapiens), sequence (Q13547 whole entry, looked up): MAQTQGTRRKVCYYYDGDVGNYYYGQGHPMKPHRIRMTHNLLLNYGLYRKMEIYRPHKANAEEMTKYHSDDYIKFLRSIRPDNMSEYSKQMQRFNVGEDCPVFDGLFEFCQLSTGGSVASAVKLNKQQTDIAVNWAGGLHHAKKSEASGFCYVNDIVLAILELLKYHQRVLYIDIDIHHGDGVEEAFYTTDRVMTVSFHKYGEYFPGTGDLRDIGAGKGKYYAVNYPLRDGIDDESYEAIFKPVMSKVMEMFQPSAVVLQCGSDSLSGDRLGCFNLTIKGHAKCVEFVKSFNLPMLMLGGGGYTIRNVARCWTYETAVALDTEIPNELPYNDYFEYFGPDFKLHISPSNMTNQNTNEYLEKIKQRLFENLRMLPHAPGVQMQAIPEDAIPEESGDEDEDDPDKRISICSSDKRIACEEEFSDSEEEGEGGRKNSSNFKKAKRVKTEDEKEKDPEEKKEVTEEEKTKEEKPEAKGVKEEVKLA
Class 1 histone deacetylase (Homo sapiens), sequence (Q92769 whole entry, looked up): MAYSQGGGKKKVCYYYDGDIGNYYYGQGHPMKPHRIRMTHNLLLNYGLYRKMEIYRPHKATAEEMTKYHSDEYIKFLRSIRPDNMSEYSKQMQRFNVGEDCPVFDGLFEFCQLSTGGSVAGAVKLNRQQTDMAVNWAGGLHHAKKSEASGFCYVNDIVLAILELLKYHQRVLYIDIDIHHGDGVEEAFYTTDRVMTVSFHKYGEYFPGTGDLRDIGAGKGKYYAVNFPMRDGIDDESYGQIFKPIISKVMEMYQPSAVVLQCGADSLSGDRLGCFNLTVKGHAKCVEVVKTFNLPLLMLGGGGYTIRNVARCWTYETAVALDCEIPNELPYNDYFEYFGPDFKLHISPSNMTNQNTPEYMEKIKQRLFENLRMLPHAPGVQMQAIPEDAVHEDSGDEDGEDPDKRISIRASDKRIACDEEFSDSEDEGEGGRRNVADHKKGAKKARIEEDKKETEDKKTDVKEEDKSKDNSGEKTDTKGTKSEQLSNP
Class 1 histone deacetylase (Homo sapiens), sequence (Q9BY41 whole entry, looked up): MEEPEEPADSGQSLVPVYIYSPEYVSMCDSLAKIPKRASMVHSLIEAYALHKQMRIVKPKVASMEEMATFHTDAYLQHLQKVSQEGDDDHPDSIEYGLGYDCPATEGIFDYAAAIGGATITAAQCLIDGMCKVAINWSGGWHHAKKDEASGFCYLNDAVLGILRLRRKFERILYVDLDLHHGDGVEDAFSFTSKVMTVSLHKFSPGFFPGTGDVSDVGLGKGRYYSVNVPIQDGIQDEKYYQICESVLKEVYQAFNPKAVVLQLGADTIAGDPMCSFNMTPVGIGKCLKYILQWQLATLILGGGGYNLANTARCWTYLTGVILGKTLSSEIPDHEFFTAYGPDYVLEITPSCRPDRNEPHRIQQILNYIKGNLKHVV

[3] = Cytotoxicity against human L02 cells assessed as inhibition of cell proliferation incubated for 48 hrs by CCK8 assay; format: toxicity, cell-based
Homo sapiens = species on record: Homo sapiens; experiment: Selectivity index, ratio of IC50 for inhibition of C-terminal FLAG-tagged human full length recombinant HDAC2 (1 to 488 residues) expressed in Sf9 cells to IC50 for inhibition of N-terminal GST-tagged human full length recombinant HDAC6 (1 to 1215 residues) expressed in Sf9 cells
RPMI-8226 = experiment: Induction of apoptosis in human RPMI-8226 cells assessed as proportion of early apoptotic cells at 0.1 uM incubated for 24 hrs by AnnexinV-FITC/PI staining based flow cytometry (reference value: 10.63%); format: functional, cell-based
[4] = target: T1, Protein deacetylase HDAC6 (Homo sapiens); settings: A549, dose 80.0 nM, time 5.0 hrs

O=C(NO)c1ccc(COc2no[n+]([O-])c2S(=O)(=O)c2ccccc2)cc1
fold change (FC) [1]: 5.2 | fold change (FC) [2]: 1 | IC50 at 48 h [3]: 8.2 µM | Ratio IC50 (Homo sapiens): 45.5 | Activity (RPMI-8226): Active | inhibition [4]: Active
